Data published in ChEMBL document CHEMBL1201862, “PubChem BioAssay data set” (2004).
Active and inactive are the calls of the source.

How the values were obtained:
[1] = molecular target: T1, Corticotropin-releasing factor receptor 2/Corticotropin-releasing factor-binding protein (Homo sapiens, UniProt P24387+Q13324); test: Dose Response confirmation of uHTS hits for small molecule antagonists of the CRF-binding protein and CRF-R2 receptor complex.; assay type: functional; settings: read-out: IC50_Mean
T1 sequence (Q13324 whole entry): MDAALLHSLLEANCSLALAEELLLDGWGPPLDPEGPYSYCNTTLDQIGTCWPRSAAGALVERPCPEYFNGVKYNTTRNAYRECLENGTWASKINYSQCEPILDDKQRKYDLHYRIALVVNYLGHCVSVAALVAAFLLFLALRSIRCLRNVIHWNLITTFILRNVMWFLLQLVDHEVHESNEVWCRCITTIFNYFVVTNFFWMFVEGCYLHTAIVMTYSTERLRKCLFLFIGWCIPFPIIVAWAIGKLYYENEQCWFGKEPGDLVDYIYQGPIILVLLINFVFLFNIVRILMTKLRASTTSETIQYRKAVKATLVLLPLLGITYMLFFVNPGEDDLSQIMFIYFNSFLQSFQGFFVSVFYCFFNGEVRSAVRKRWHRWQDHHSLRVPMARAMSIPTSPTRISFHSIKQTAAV
T1 sequence (P24387 whole entry): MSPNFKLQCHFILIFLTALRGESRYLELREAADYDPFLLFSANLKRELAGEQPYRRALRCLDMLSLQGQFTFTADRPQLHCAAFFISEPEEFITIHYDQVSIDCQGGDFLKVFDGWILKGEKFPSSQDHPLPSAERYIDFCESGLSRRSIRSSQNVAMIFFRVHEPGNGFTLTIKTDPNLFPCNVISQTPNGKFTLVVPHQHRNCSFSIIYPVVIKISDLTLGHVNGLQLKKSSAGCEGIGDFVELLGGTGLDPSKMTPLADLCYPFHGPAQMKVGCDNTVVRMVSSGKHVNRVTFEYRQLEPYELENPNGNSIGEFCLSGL

[2] = Luminescence Cell-Based Dose Response HTS to Identify Activators of Luciferase Translation or Activity in H4 […] Cells. [Related pubchem assays: 1829 (Project Summary), 1814 (Primary HTS)]; assay type: functional
[3] = Luminescence Cell-Based Dose Confirmation HTS to Identify Activators of 5'UTR Stem-Loop Driven Alpha-Synuclein mRNA Translation in H4 Neuroglioblastoma Cells. [Related pubchem assays: 1829 (Project Summary), 1814 (Primary HTS)]; assay type: functional
H4 = test: Luminescence Cell-Based Dose Response HTS to Identify Activators of 5'UTR Stem-Loop Driven Prion Protein mRNA Translation in H4 Neuroglioblastoma Cells. [Related pubchem assays: 1829 (Project Summary), 1814 (Primary HTS)]; assay type: functional; settings: Homo sapiens
[4] = molecular target: T1, Corticotropin-releasing factor receptor 2/Corticotropin-releasing factor-binding protein; test: activators of CRF receptor 2 with binding protein – uHTS hits, confirmation (AID 602473); assay type: functional; settings: read-out: EC50_Mean
cells = assay type: functional
[5] = molecular target: T2, Calpain-2 catalytic subunit (Sus scrofa, UniProt P43367); test: m-calpain protease blockers, concentration series – biochemical, fluorogenic peptide substrate, dose response (AID 1420); assay type: functional
T2 sequence (P43367 whole entry): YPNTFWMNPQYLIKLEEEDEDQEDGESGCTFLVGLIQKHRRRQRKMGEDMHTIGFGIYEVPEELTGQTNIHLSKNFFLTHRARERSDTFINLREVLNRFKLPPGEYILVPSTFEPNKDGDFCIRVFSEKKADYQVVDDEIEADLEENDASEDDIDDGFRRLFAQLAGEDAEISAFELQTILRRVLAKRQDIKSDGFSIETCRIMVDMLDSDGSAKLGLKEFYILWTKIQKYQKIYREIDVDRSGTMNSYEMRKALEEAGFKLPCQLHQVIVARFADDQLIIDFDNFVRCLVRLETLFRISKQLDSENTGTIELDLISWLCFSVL

Paired box protein Pax-8 = Paired box protein Pax-8 (Homo sapiens, UniProt Q06710); test: PAX8 transcriptional activity inhibition in RMG-I – RMG-I cells, luciferase, cherry-pick, dose response (AID 687027); assay type: functional, cell-based;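 further: luciferase reporter driven by Pax8 target thyroperoxidase promoter measured by SteadyGlo luminescence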
Sequence of Paired box protein Pax-8 (Q06710 whole entry): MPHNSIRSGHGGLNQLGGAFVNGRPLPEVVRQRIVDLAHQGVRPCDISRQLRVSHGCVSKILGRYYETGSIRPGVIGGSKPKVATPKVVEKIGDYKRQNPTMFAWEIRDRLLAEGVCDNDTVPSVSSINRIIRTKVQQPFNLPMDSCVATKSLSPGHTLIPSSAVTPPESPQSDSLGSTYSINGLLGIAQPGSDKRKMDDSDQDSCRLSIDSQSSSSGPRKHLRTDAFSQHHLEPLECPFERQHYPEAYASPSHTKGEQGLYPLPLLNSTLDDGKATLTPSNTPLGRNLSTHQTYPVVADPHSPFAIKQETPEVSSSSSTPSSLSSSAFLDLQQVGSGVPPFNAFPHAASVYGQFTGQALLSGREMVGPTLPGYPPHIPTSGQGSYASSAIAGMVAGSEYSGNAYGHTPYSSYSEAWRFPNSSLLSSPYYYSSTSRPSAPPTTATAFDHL

Cytochrome P450 2C9 = Cytochrome P450 2C9 (Homo sapiens, UniProt P11712)
Sequence of Cytochrome P450 2C9 (P11712 whole entry): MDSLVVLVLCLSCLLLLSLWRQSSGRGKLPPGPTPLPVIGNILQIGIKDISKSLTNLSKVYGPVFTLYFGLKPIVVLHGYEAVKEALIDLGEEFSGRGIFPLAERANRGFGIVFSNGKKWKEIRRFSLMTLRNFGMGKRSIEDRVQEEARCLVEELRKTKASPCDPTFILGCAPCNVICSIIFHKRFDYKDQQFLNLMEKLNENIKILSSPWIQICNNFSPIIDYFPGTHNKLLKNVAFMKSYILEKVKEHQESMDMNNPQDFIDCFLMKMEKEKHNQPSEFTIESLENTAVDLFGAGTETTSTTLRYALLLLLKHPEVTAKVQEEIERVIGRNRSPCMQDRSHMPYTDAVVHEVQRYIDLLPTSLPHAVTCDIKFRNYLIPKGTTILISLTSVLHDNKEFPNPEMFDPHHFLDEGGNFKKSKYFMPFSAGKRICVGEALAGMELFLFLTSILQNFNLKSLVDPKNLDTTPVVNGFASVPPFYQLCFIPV

Cytochrome P450 1A2 = molecular target: T3, Cytochrome P450 1A2 (Homo sapiens, UniProt P05177);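 further: PubChem cytochrome P450 panel assay, CYP1A2 panel member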
T3 sequence (P05177 whole entry): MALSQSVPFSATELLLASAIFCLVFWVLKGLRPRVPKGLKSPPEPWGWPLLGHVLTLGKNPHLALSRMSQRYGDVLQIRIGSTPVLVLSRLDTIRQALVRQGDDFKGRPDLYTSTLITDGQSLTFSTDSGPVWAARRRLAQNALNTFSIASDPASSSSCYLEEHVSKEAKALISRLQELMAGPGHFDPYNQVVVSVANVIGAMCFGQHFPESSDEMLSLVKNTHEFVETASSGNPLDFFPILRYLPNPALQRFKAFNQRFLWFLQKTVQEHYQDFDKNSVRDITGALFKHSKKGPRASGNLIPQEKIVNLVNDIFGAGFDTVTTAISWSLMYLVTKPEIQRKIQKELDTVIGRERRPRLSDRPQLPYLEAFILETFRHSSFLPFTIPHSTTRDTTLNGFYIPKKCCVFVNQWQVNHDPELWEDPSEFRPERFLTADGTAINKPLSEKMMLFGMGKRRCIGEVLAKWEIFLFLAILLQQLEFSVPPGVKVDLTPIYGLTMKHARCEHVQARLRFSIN

Cytochrome P450 3A4 = Cytochrome P450 3A4 (Homo sapiens, UniProt P08684);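 further: CYP3A4 tested as one member of a cytochrome P450 panel screen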
Sequence of Cytochrome P450 3A4 (P08684 whole entry): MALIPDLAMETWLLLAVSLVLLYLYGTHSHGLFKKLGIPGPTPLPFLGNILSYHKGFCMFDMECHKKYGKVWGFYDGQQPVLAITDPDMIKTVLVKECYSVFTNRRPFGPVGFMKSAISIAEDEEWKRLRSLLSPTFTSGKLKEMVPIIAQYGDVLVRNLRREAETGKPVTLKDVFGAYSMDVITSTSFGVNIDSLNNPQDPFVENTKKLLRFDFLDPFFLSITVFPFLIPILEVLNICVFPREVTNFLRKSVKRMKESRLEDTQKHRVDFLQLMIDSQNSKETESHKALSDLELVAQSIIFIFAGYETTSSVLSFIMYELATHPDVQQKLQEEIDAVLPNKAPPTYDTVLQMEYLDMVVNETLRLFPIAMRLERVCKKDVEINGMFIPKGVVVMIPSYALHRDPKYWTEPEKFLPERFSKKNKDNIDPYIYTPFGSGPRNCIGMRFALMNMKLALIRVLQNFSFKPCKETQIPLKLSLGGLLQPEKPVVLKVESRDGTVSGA

[6] = Trypanosoma cruzi growth suppression in host cells – NIH3T3 host cells, beta-gal luminescence, confirmation (AID 2044); assay type: functional, cell-based;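 further: intracellular parasites grown in NIH/3T3 mouse fibroblasts as host cells; luminescent beta-galactosidase reporter signal from transgenic T. cruzi replicating inside host cells; inhibitors lower the luminescence signal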
[7] = NIH3T3 cell viability loss – ATP luminescence, mouse fibroblasts, counter-screen, dose response (AID 2010); assay type: functional, cell-based;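 further: cells exposed to compound for about 90 hours before reading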
[8] = molecular target: T4, Zinc finger protein mex-5 (Caenorhabditis elegans, UniProt Q9XUB2); test: potency of MEX-5 RNA-binding blockers – biochemical, C. elegans, fluorescence polarization, dose response (AID 1960)
T4 sequence (Q9XUB2 whole entry): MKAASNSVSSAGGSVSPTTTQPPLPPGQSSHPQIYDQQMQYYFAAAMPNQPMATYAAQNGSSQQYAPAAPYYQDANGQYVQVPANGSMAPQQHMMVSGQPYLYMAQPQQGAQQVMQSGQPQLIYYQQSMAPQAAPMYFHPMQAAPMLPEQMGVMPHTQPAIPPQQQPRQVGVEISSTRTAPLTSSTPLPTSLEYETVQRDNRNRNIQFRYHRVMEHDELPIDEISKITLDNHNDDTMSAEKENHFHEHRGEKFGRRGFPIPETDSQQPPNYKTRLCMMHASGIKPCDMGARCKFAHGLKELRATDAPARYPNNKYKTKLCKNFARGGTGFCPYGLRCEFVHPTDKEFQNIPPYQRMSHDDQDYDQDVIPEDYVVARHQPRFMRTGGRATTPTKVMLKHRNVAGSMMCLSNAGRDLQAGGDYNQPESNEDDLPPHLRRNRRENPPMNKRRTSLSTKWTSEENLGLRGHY

[9] = molecular target: T5, RNA-binding protein pos-1 (Caenorhabditis elegans, UniProt G5EF15); test: disruptors of C. elegans POS-1 RNA interaction – biochemical, fluorescence polarization, dose response (AID 1964);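 further: purified POS-1 fused to maltose binding protein made in E. coli; potency of compounds blocking POS-1 binding to fluorescent RNA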
T5 sequence (G5EF15 whole entry): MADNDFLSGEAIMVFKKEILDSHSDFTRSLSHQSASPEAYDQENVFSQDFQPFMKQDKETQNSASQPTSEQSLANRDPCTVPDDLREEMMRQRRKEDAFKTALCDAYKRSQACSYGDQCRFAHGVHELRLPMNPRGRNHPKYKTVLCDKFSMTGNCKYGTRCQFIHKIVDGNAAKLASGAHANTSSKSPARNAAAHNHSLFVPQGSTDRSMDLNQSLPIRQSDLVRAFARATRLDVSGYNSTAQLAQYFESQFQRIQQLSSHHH

Cc1ccc(NC(=O)CSC2=C(C#N)C(c3ccco3)CC(=O)N2)cc1 (configuration not stated)
IC50 [1]: > 47.1 µM (inactive) | EC50 [2]: 12.4 µM (active) | EC50 [3]: 0.908 µM (active) | EC50 (H4): 16.1 µM (active) | EC50 [4]: > 53 µM (inactive)

COC(=O)C1CC(Cl)CN1c1ncc(C(F)(F)F)cc1Cl (configuration not stated)
IC50 [1]: > 47.1 µM (inactive) | EC50 [4]: > 53 µM (inactive)

CCOCCOC(=O)c1ccc(NC(=O)C2COc3ccccc3O2)cc1 (configuration not stated)
IC50 (cells): 15.2 µM (active)

Cc1ccc(-c2nc(N)sc2-c2ccc(C)cc2)cc1
IC50 [5]: 3.19 µM (not active)

OC(CNCc1ccc(Cl)cc1)(c1ccccc1)c1ccc(F)cc1 (configuration not stated)
IC50 [5]: 12.1 µM (not active)

CCOC(=O)c1cnn(CCOC(=O)c2cccc(F)c2)c1NC(=O)c1cccc(F)c1
AC50 (Paired box protein Pax-8): 20 µM (active)

CC(C)NC(=O)N1CCCC2(CCN(C(=O)Oc3ccccc3)CC2)C1
AC50 (Cytochrome P450 2C9): 12.6 µM (inconclusive) | AC50 (Cytochrome P450 1A2): 12.6 µM (inconclusive) | AC50 (Cytochrome P450 3A4): 25.1 µM (inconclusive)

CC(C)(C)n1nc2c(c1NC(=O)Cc1ccccc1)CS(=O)(=O)C2
IC50 [1]: > 47.1 µM (inactive) | EC50 [4]: > 53 µM (inactive)

NS(=O)(=O)c1ccc(/N=N\c2ncccc2O)cc1
AC50 (Cytochrome P450 2C9): 6.31 µM (inconclusive) | AC50 (Cytochrome P450 1A2): 2 µM (inconclusive) | AC50 (Cytochrome P450 3A4): 3.98 µM (inconclusive)

Cc1cccc2cc(C#N)c(N3CCN(C)CC3)nc12
IC50 [1]: > 47.1 µM (inactive) | EC50 [4]: > 53 µM (inactive)

Cn1cc(C(=O)c2ccccc2)c2ccccc21
IC50 [1]: > 47.1 µM (inactive) | EC50 [4]: > 53 µM (inactive)

O=C(Nc1ccc(Cl)c(C(F)(F)F)c1)C1CCCN(S(=O)(=O)c2c[nH]cn2)C1 (configuration not stated)
AC50 (Cytochrome P450 2C9): 0.501 µM (inconclusive)

C/C(=N\Nc1cccc2cccnc12)c1ccccn1
EC50 [6]: 2.51 µM (active) | EC50 [7]: > 60 µM (not active) | IC50 (cells): 13.8 µM (active)

Cn1c(=O)c2nc(N/N=C(/C#N)C(N)=O)[nH]c2n(C)c1=O
EC50 [8]: 52.4 µM (active) | EC50 [9]: > 300 µM (not active)

Cc1oc(/N=C/c2ccc(O)cc2O)c(C#N)c1C
EC50 [8]: > 300 µM (not active) | EC50 [9]: > 300 µM (not active)

CCO/C(C)=N/n1c2nc3ccccc3nc2c2c(=O)n(CC(C)C)c(C)nc21
AC50 (Cytochrome P450 2C9): 12.6 µM (inconclusive)
